The values that follow come from ChEMBL document CHEMBL3297647, “Biological evaluation of subglutinol a as a novel immunosuppressive agent for inflammation intervention” (ACS Med Chem Lett, 2014).

Activity calls are given as the source filed them. The calls are words filed in the database; no cut-off is given here.

The test system of assay [1] is Lymphocyte. The experiment in a line: Immunosuppressive activity in lymphocytes by MLR assay. The class given is functional, cell-based.
The test system of assay [2] is T-cell. The experiment in a line: Induction of apoptosis in pMel-1 TCR transgenic C57BL/6 mouse gp100 (25 to 33)-activated CD8-positive T cells assessed as live divided cells at 100 nM after 48 hrs by CFSE dilution/flow cytometric analysis (reference value: 55.2%). In kind it is functional.
Assay [3] deals with T-cell. The experiment in a line: Induction of apoptosis in pMel-1 TCR transgenic C57BL/6 mouse gp100 (25 to 33)-activated CD8-positive T cells assessed as live undivided cells at 100 nM after 48 hrs by CFSE dilution/flow cytometric analysis (reference value: 23.4%). In kind it is functional. Background: A flow cytometer gives signals particle by particle.
Assay [4] deals with T-cell. The assay is described as follows: Induction of apoptosis in LLO118 TCR transgenic mouse LLO (190 to 205)-activated CD4-positive T cells assessed as dead divided cells at 100 nM after 48 hrs by CFSE dilution/flow cytometric analysis (reference value: 3.04%). In kind it is functional.
The test system of assay [5] is T-cell. The experiment in a line: Induction of apoptosis in pMel-1 TCR transgenic C57BL/6 mouse gp100 (25 to 33)-activated CD8-positive T cells assessed as dead undivided cells at 100 nM after 48 hrs by CFSE dilution/flow cytometric analysis (reference value: 6.77%). In kind it is functional.
Assay [6] concerns T-cell. The experiment in a line: Induction of apoptosis in LLO118 TCR transgenic mouse LLO (190 to 205)-activated CD4-positive T cells assessed as live divided cells at 100 nM after 48 hrs by CFSE dilution/flow cytometric analysis (reference value: 40.6%). The class given is functional.
The subject of assay [7] is T-cell. The assay is described as follows: Induction of apoptosis in pMel-1 TCR transgenic C57BL/6 mouse gp100 (25 to 33)-activated CD8-positive T cells assessed as dead divided cells at 100 nM after 48 hrs by CFSE dilution/flow cytometric analysis (reference value: 14.7%). The class given is functional.
Assay [8] deals with T-cell. The assay is described as follows: Induction of apoptosis in LLO118 TCR transgenic mouse LLO (190 to 205)-activated CD4-positive T cells assessed as live undivided cells at 100 nM after 48 hrs by CFSE dilution/flow cytometric analysis (reference value: 41.6%). In kind it is functional.
In assay [9] the test system is T-cell. The assay is described as follows: Induction of apoptosis in LLO118 TCR transgenic mouse LLO (190 to 205)-activated CD4-positive T cells assessed as dead undivided cells at 100 nM after 48 hrs by CFSE dilution/flow cytometric analysis (reference value: 14.7%). In kind it is functional.
A short description of assay [10]: Immunosuppressive activity in C57Bl/6 mouse lymphocytes assessed as inhibition of cell proliferation co-incubated with BALB/c mouse stimulator lymphocytes after 72 hrs by [3H]-thymidine incorporation assay. The settings on record: C57Bl/6, Lymphocyte. The class given is functional, cell-based. In general terms: Uptake of a labelled nucleoside into DNA is a usual measure of proliferation.

For assay [11], the system named is Mus musculus. The assay is described as follows: Immunosuppressive activity in C57BL/6J mouse KLH-induced delayed-type hypersensitivity model assessed as blockade of lymphocyte accumulation at 16 nmol administered on day 7 and 8 post-sensitization measured on day 9. In kind it is functional, organism-based.
Assay [12] has as its system BMDC. The assay is described as follows: Reduction in mitochondrial mass in B6 mouse immature BMDC at 100 nM for 1 day by MitoTracker Deep Red FM staining-based flow cytometric analysis. In kind it is functional.
Assay [13] has as its system Th1. The experiment in a line: Reduction in mitochondrial mass in LLO118 TCR transgenic mouse Th1 cells at 50 to 100 nM for 2 days by MitoTracker Deep Red FM staining-based flow cytometric analysis. In kind it is functional, cell-based.
Assay [14] relates to T-cell. The experiment in a line: Antiinflammatory activity in LLO118 TCR transgenic mouse IL-2-competent CD4-positive T cells assessed as inhibition of LLO (190 to 205)-induced IL-2 production at 100 nM for 2 days by flow cytometric analysis. The class given is functional, cell-based.
The nature of assay [15]: Antiinflammatory activity in LLO118 TCR transgenic mouse IL-2-competent CD4-positive T cells assessed as inhibition of LLO (190 to 205)-induced IL-2 production at 1 nM for 2 days by flow cytometric analysis relative to control. In kind it is functional. As to conditions: T-cell, 48 h.
A short description of assay [16]: Antiinflammatory activity in LLO118 TCR transgenic mouse Th1 cells assessed as inhibition of IFN-gamma production at 10 nM for 2 days by flow cytometric analysis (reference value: 90%). In kind it is functional. Also on record: scale not given: the % may be the effect or the level left.
For assay [17], the system named is Th1. The assay is described as follows: Induction of mitochondrial depolarization in LLO118 TCR transgenic mouse Th1 cells treated for 2 days by MitoTracker Orange CMTMRos staining-based flow cytometric analysis. In kind it is functional, cell-based.
Assay [18] concerns Th17. The assay is described as follows: Antiinflammatory activity in LLO118 TCR transgenic mouse Th17 cells assessed as inhibition of IL-17 production at 10 to 100 nM for 2 days by flow cytometric analysis. The class given is functional, cell-based.
Assay [19] has as its system Mus musculus. The experiment in a line: Immunosuppressive activity in C57BL/6J mouse KLH-induced delayed-type hypersensitivity model assessed as amelioration of tissue injury at 16 nmol administered on day 7 and 8 post-sensitization measured on day 9. In kind it is functional, organism-based.
Assay [20] deals with BMDC. The experiment in a line: Induction of mitochondrial depolarization in LPS-matured B6 mouse BMDC at 100 nM for 1 day by MitoTracker Orange CMTMRos staining-based flow cytometric analysis. The class given is functional.
In assay [21] the test system is BMDC. The assay is described as follows: Reduction in mitochondrial mass in LPS-matured B6 mouse BMDC at 100 nM for 1 day by MitoTracker Deep Red FM staining-based flow cytometric analysis. The class given is functional.
Assay [22] deals with Mus musculus. The assay is described as follows: Immunosuppressive activity in C57BL/6J mouse KLH-induced delayed-type hypersensitivity model assessed as alleviation of footpad swelling at 16 nmol administered on day 7 and 8 post-sensitization measured on day 9. In kind it is functional, organism-based.
Assay [23] concerns Th17. The experiment in a line: Reduction in mitochondrial mass in LLO118 TCR transgenic mouse Th17 cells at 50 to 100 nM for 2 days by MitoTracker Deep Red FM staining-based flow cytometric analysis. In kind it is functional, cell-based.
Assay [24] deals with BMDC. The experiment in a line: Induction of mitochondrial depolarization in B6 mouse immature BMDC at 100 nM for 1 day by MitoTracker Orange CMTMRos staining-based flow cytometric analysis. The class given is functional.
For assay [25], the system named is Th17. The assay is described as follows: Induction of mitochondrial depolarization in LLO118 TCR transgenic mouse Th17 cells treated for 2 days by MitoTracker Orange CMTMRos staining-based flow cytometric analysis. The class given is functional, cell-based.

By IC50 is commonly meant the concentration that inhibits the measured activity by half. In assay [1], `C/C=C/C[C@@H](C)[C@@H](O)[C@H]1C(=O)N[C@@H](CC)C(=O)N(C)CC(=O)N(C)[C@@H](CC(C)C)C(=O)N[C@@H](C(C)C)C(=O)N(C)[C@@H](CC(C)C)C(=O)N[C@@H](C)C(=O)N[C@H](C)C(=O)N(C)[C@@H](CC(C)C)C(=O)N(C)[C@@H](CC(C)C)C(=O)N(C)[C@@H](C(C)C)C(=O)N1C` [CYCLOSPORINE] came in with a 50% inhibitory concentration (IC50) of 89 nM. The Activity in [2] worked out at 0.68%; in assay [3], 2.01%; in assay [4] it was 10.9%; in [5], 86.5%; in [6], 1.02%; in assay [7], 10.8%. Moreover, the Activity is 1.94% in [8] and 86.1% in [9].
By inhibition is commonly meant the share of the control response that was lost under treatment. Consider `C=C1CC[C@H]2[C@]3(C)C[C@@H](C=C(C)C)O[C@H]3CC[C@]2(C)[C@@H]1Cc1c(O)c(C)c(C)oc1=O` [SUBGLUTINOL A], for which the results for the IC50 in assay [1] and in assay [10] were 25 nM and 100 nM, respectively. Moreover, the Activity is 1.04% in assay [2]; 12.3% in assay [3]; 3.29% in assay [4]; 83.6% in assay [5]; less than 1% in [16]; “Dose-dependent effect” in assay [17]. Besides, the Activity was 0.73% in [6]; 3.09% in assay [7]; 13.4% in assay [8]; “Dose-dependent effect” in [25]; 82.6% in assay [9]. For the same compound, the result in assay [11], in assay [13], in assay [19] and in assay [22] was Active. Further, the result in assay [12], in [20], in assay [21], in [23] and in assay [24] was inactive. Also, the inhibition result in assay [14] and in assay [18] was “Active” throughout. The inhibition at 0.001 µM in assay [15] came to 50%.
For the compound `C=C1CC[C@H]2[C@]3(C)C[C@H](C=C(C)C)O[C@H]3CC[C@]2(C)[C@@H]1Cc1c(O)c(C)c(C)oc1=O` [SUBGLUTINOL B], the IC50 in assay [10] was found to be 100 nM.
